Results reported in patent US8993565B2, “(6-oxo-1,6-dihydropyrimidin-2-yl)amide derivatives, preparation thereof and pharmaceutical use thereof as AKT(PKB) phosphorylation inhibitors” (Sanofi, priority 2009, dated 2015).

Experiments:
[1] = system: AKT protein phosphorylated on serine 473 (pAKT-S473); assay: Study of pAKT expression in PC3 human prostate carcinoma cells measured by western blotting (Test A); type: cell-based; details: PC-3, inhibition of AKT phosphorylation (pAKT-S473), 1 to 2 hours incubation, absolute IC50, mean of two experiments
Method: The inhibitory activity of the molecules on AKT phosphorylation is measured either by western blotting using the technique described below, or by the MSD Multi-spot Biomarker detection technique from Meso Scale Discovery also described below.
Study of pAKT Expression in PC3 Human Prostate Carcinoma Cells Measured by Western Blotting (Test A):
On day 2, the cells are incubated in the presence or absence of the test products for 1 to 2 hours at 37° C. in the presence of 5% CO2. The molecules, diluted in dimethyl sulphoxide (DMSO Sigma #D2650), are added from a 10-times concentrated stock solution, the final percentage of DMSO being 0.1%. The molecules are tested either at a single concentration of less than or equal to 10 μM, or at increasing concentrations in a range that can extend from less than 1 nM to 10 μM.
After this incubation, the cells are lysed for the preparation of the proteins.
The lysate is centrifuged for 10 min at 6000 rpm. 155 μl of supernatant are recovered. 150 μl are incubated for denaturation for 5 min at 95° C. in the presence of 4× NuPAGE LDS Sample Buffer diluted 4-fold (InVitrogen ref NP0007) and of 10× NuPAGE Sample Reducing Agent diluted 10-fold (InVitrogen ref NP0009). These samples are then frozen at −20° C.
The gel is then transferred on to an Invitrolon PVDF membrane (Invitrogen #LC2007) permeabilised beforehand and for a few seconds in ethanol (Ethanol Fischer Scientific #E/0600DF/15).
The transfer is carried out in a Biorad tank at 30 volts overnight or at 60 volts for 3 hours, in the presence of 20× NUPAGE Transfer Buffer diluted 20-fold (InVitrogen ref NP0006).
The membrane is then saturated in saturating solution composed of TBS (10× Tris Buffered Saline, Sigma #T5912, diluted 10-fold), 0.1% Tween (Sigma #P5927) and 3% BSA (Bovine Albumin Serum Fraction V, Sigma #A4503) for 6 h after overnight transfer or else for 1 h after transfer for a period of 3 h.
Two rinses for min in washing solution composed of TBS and 0.1% Tween 20 are carried out before hybridisation of the secondary antibodies.
The secondary antibodies are diluted 110000th for the rabbit anti-Mouse IgG HRP antibody (W402 Promega) and to 110000th for the goat anti-Rabbit IgG HRP antibody (W401 Promega) in saturating solution, and then shaken for 1 h at ambient temperature.
Two rinses for 30 min in washing solution are carried out and then a rinse for 5 min in H2O is carried out in order to eliminate the remaining Tween 20.
The luminescence is read with the FujiFilm device (Ray Test).
The FUJI device measures the total luminescence signal obtained (AU) for each band selected. It then subtracts the background noise (BG) proportional to the size of the band selected (Area), said background noise being calculated from a specific background noise band, with a view to obtaining the specific signal (AU-BG) for each band. The band obtained in the absence of product and in the presence of 0.1% DMSO is considered to be the 100% signal. The software calculates the % specific activity (Ratio) obtained for each band selected as a function of this 100% signal. The percentage inhibition is calculated for each concentration according to the formula (100%−Ratio).
Two independent experiments make it possible to calculate the mean of the percentages of inhibition obtained at a given concentration for the products tested only at one concentration.
Two independent experiments make it possible to calculate the mean of the IC50s.

[2] = system: AKT protein phosphorylated on serine 473 (P-AKT-S473); assay: Study of pAKT expression in PC3 human prostate carcinoma cells measured by the MSD Multi-spot Biomarker Detection technique (Test B); type: cell-based; details: PC-3, inhibition of AKT phosphorylation (P-AKT-S473), MSD sandwich immunoassay, 1 to 2 h incubation, absolute IC50, mean of 2 experiments
How it was run: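 Lysate P-AKT-S473 quantified by MSD electrochemiluminescent sandwich immunoassay; inhibition vs DMSO and cell-free background, IC50 averaged over 2 experiments.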

Row | IC50 [1] [nM] | melting point [°C] | IC50 [2] [nM] | Compound
1 | 200 | 246 | – | O=C(Cc1nc(N2CCOCC2)cc(=O)[nH]1)Nc1cccc(C2CC2)c1 [Example 36, N-(3-cyclopropylephenyl)-2-[4-(morpholin-4-yl)-6-oxo-1,6-dihydropyrimidin-2-yl]acetamide]
2 | 737 | 248 | – | O=C(Cc1nc(N2CCOCC2)cc(=O)[nH]1)Nc1cccc(F)c1F [Example 12, N-(2,3-difluorophenyl)-2-[4-(morpholin-4-yl)-6-oxo-1,6-dihydropyrimidin-2-yl]acetamide]
3 | 10000 | > 260 | – | O=C(Cc1nc(N2CCOCC2)cc(=O)[nH]1)Nc1ccc(F)c(CO)c1 [Example 35, N-[4-fluoro-3-(hydroxymethyl)phenyl]-2-[4-(morpholin-4-yl)-6-oxo-1,6-dihydropyrimidin-2-yl]acetamide]
4 | 650 | 220 | – | COCc1cc(NC(=O)Cc2nc(N3CCOCC3)cc(=O)[nH]2)ccc1F [Example 73, N-[4-fluoro-3-(methoxymethyl)phenyl]-2-[4-(morpholin-4-yl)-6-oxo-1,6-dihydropyrimidin-2-yl]acetamide]
5 | – | 216 | 133 | Cn1c(CC(=O)Nc2cccc(C3CC3)c2)nc(N2CCOCC2)cc1=O [Example 82, N-(3-cyclopropylphenyl)-2-[1-methyl-4-(morpholin-4-yl)-6-oxo-1,6-dihydropyrimidin-2-yl]acetamide]
6 | – | 256 | 26 | CN(C)C[C@H]1CN(C(=O)Cc2nc(N3CCOCC3)cc(=O)[nH]2)c2ccccc21 [Example 136, 2-(2-{(3S)-3-[(dimethylamino)methyl]-2,3-dihydro-1H-indol-1-yl}-2-oxoethyl)-6-(morpholin-4-yl)pyrimidin-4(3H)-one]
7 | – | 238 | 195 | CCn1c(CC(=O)Nc2ccc(F)cc2)nc(N2CCOCC2)cc1=O [Example 70, 2-[1-ethyl-4-(morpholin-4-yl)-6-oxo-1,6-dihydropyrimidin-2-yl]-N-(4-fluorophenyl)acetamide]
8 | – | 112 to 115 | 11 | COCC1Cc2ccccc2N1C(=O)Cc1nc(N2CCOCC2)cc(=O)[nH]1 (centres unmarked) [Example 120, 2-{2-[2-(methoxymethyl)-2,3-dihydro-1H-indol-1-yl]-2-oxoethyl}-6-(morpholin-4-yl)pyrimidin-4(3H)-one]
9 | – | 254 | 70 | Cn1c(CC(=O)Nc2cccc3sccc23)nc(N2CCOCC2)cc1=O [Example 130, N-(1-benzothiophen-4-yl)-2-[1-methyl-4-(morpholin-4-yl)-6-oxo-1,6-dihydropyrimidin-2-yl]acetamide]
10 | – | 266 | 89 | CC(C)C(C(=O)Nc1ccc(F)cc1)c1nc(N2CCOCC2)cc(=O)[nH]1 (centres unmarked) [Example 72, N-(4-fluorophenyl)-3-methyl-2-[4-(morpholin-4-yl)-6-oxo-1,6-dihydropyrimidin-2-yl]butanamide]
11 | – | 200 | 27 | O=C(Cc1nc(N2CCOCC2)cc(=O)[nH]1)N1c2ccccc2CC1CO (centres unmarked) [Example 106, 2-{2-[2-(hydroxymethyl)-2,3-dihydro-1 H-indol-1-yl]-2-oxoethyl}-6-(morpholin-4-yl)pyrimidin-4(3H)-one]
12 | 250 | 266 | – | Cn1c(CC(=O)Nc2cccc(Br)c2)nc(N2CCOCC2)cc1=O [Example 69, N-(3-bromophenyl)-2-[1-methyl-4-(morpholin-4-yl)-6-oxo-1,6-dihydropyrimidin-2-yl]acetamide]
13 | – | 239 | 26 | Cc1cccc2c1CCN2C(=O)Cc1nc(N2CCOCC2)cc(=O)n1C [Example 114, 3-methyl-2-[2-(4-methyl-2,3-dihydro-1H-indol-1-yl)-2-oxoethyl]-6-(morpholin-4-yl)pyrimidin-4(3H)-one]
14 | – | 229 | 69 | O=C(Cc1nc(N2CCOCC2)cc(=O)[nH]1)Nc1cccc(OC(F)(F)C(F)F)c1 [Example 75, 2-[4-(morpholin-4-yl)-6-oxo-1,6-dihydropyrimidin-2-yl]-N-[3-(1,1,2,2-tetrafluoroethoxy)phenyl]acetamide]
15 | – | 229 | 278 | COc1cccc2c1CCN2C(=O)Cc1nc(N2CCOCC2)cc(=O)n1C [Example 110, 2-[2-(4-methoxy-2,3-dihydro-1H-indol-1-yl)-2-oxoethyl]-3-methyl-6-(morpholin-4-yl)pyrimidin-4(3H)-one]
16 | – | 245 | 26 | Cn1c(CC(=O)Nc2ccc(F)c(C3CC3)c2)nc(N2CCOCC2)cc1=O [Example 86, N-(3-cyclopropyl-4-fluorophenyl)-2-[1-methyl-4-(morpholin-4-yl)-6-oxo-1,6-dihydropyrimidin-2-yl]acetamide]
17 | 2500 | 194 | – | CC(C)(C)OC(=O)NCCc1cccc(NC(=O)Cc2nc(N3CCOCC3)cc(=O)[nH]2)c1 [Example 46, 2-methylpropan-2-yl {2-[3-({[4-(morpholin-4-yl)-6-oxo-1,6-dihydropyrimidin-2-yl]acetyl}amino)phenyl]ethyl}-carbamate]
18 | – | > 260 | 71 | O=C(Cc1nc(N2CCOCC2)cc(=O)[nH]1)Nc1cc(F)cc(F)c1 [Example 13, N-(3,5-difluorophenyl)-2-[4-(morpholin-4-yl)-6-oxo-1,6-dihydropyrimidin-2-yl]acetamide]
19 | – | 244 | 43 | Cn1c(CC(=O)N2CCc3c(F)cccc32)nc(N2CCOCC2)cc1=O [Example 102, 2-[2-(4-fluoro-2,3-dihydro-1H-indol-1-yl)-2-oxoethyl]-3-methyl-6-(morpholin-4-yl)pyrimidin-4(3H)-one]
20 | 10000 | > 260 | – | O=C(Cc1nc(N2CCOCC2)cc(=O)[nH]1)Nc1ccccc1O [Example 37, N-(2-hydroxyphenyl)-2-[4-(morpholin-4-yl)-6-oxo-1,6-dihydropyrimidin-2-yl]acetamide]
21 | – | 225 | 194 | CC1CN(C(=O)Cc2nc(N3CCOCC3)cc(=O)n2C)c2ccccc21 (centres unmarked) [Example 119, 3-methyl-2-[2-(3-methyl-2,3-dihydro-1H-indol-1-yl)-2-oxoethyl]-6-(morpholin-4-yl)pyrimidin-4(3H)-one]
22 | – | 243 | 473 | O=C(Cc1nc(N2CCOCC2)cc(=O)[nH]1)Nc1cccc2c1OCCN2 [Example 143, N-(3,4-dihydro-2H-1,4-benzoxazin-8-yl)-2-[4-(morpholin-4-yl)-6-oxo-1,6-dihydropyrimidin-2-yl]acetamide]
